Results published in patent US20070202206A1, “Morinda Citrifolia Leaf Juice And Leaf Extract Based Formulations” (priority 2005, published 2007).

Key:
[1] = system: Propionibacterium acnes (ATCC 6919); assay: Microbial in vitro assay, Propionibacterium acnes; format: cell-based; settings: Microbial In Vitro Assays, Anaerobes
[2] = system: human epidermoid carcinoma cell line-A431; assay: cells; format: cell-based; settings: for Percent Grown: A431, 72-hour exposure
Description: In this example, assays were performed to detect changes in cell proliferation based on the ability of viable cells to cause alamarBlue to change from non-fluorescent blue to a reduced, fluorescent red form. With the results obtained from the alamarBlue reaction, cell proliferation can be quantified and metabolic activity of viable cells can be examined. Test compounds including Morinda citrifolia leaf extract, leaf juice, and roast leaf were tested for their effects on […]
Morinda citrifolia leaf extract, leaf juice, and roast leaf were provided by Tahitian Noni International, Inc. for in vitro anti-tumor studies. The Morinda citrifolia compounds were dissolved in sterile distilled water and then diluted with sterile distilled water to obtain initial working solutions of 10000, 1000, 100, 10, and 1 μg/ml for the leaf extract and roast leaf, as well as 100, 10, 1, 0.1 and 0.01% for the leaf juice.
The tumor cell line, A431 (human epidermoid carcinoma), obtained from American Type Culture Collection (ATCC CRL-1555), was incubated in an air atmosphere of 5% CO2 at 37° C. The culture medium was used with Dulbecco's Modified Eagle's medium, 90%; Fetal Bovine Serum, 10% and supplemented with 1% Antibiotic-Antimycotic.
The anti-proliferation for the test substances was evaluated. Aliquots of 100 μl of cell suspension (about 3×10^3/well) were placed in 96-well microtiter plates in an atmosphere of 5% CO2 at 37° C. […] At the end of incubation, 20 μl of 90% alamarBlue reagent was added to each well for another 6-hour incubation before detection of cell viability by fluorescent intensity. Fluorescent intensity was measured using a Spectrafluor Plus plate reader with excitation at 530 nm and demission at 590 nm.
IC50, TGI, and LC50 values were then determined. […] TGI (Total Growth Inhibition) is the test compound concentration where the number or mass of treated cells at the end of the experiment was equal to that at time0. […] The measured results were calculated by the following formula: PG(%)=100×(Mean Ftest−Mean Ftime0)/(Mean Fctrl−Mean Ftime0)
If (Mean Ftest−Mean Ftime0)<0, then PG(%)−100×(Mean Ftest−Mean Ftime0)/(Mean Ftime0−Mean Fblank)
Where: • PG=percent growth • Mean Ftime0=The average of 2 measured fluorescent intensities of reduced alamarBlue at the time just before exposure of cells to the test substance. • Mean Ftest=The average of 2 measured fluorescent intensities of alamarBlue after 72-hour exposure of cells to the test substance. • Mean Fctrl, =The average of 2 measured fluorescent intensities of alamarBlue after 72-hour incubation without the test substance. • Mean Fblank=The average of 2 measured fluorescent intensities of alamarBlue in medium without cells after 72-hour incubation.
A decrease of 50% or more (≧50%) in fluorescent intensity relative to the vehicle-treated control indicated significant cell growth inhibition, cytostatic or cytotoxic activity, and a semi-quantitative IC50, TGI, and LC50 were then determined by nonlinear regression using GraphPad Prism (GraphPad Software, USA).

SMILES	Reference Compound Data, Concurrent [1] [µg/mL]	Percent Grown ([2]; concentration 0.001 μM) [%]	Percent Grown ([2]; concentration 0.01 μM) [%]	Percent Grown ([2]; concentration 0.1 μM) [%]	Percent Grown ([2]; concentration 1 μM) [%]	Percent Grown ([2]; concentration 10 μM) [%]	IC50 ([2]; Homo sapiens, A-431, Tumor, Skin (A431), semi-quantitative, nonlinear regression, read-out: IC50 (50% Inhibition Concentration)) [nM]	TGI (Total Growth Inhibition) ([2]; Tumor, Skin (A431), semi-quantitative, nonlinear regression) [nM]
CC1(C)S[C@@H]2[C@H](NC(=O)[C@H](N)c3ccccc3)C(=O)N2[C@H]1C(=O)O [Ampicillin]	0.1	–	–	–	–	–	–	–
CO[C@@]12[C@H](COC(N)=O)C3=C(C(=O)C(C)=C(N)C3=O)N1C[C@@H]1N[C@@H]12 [Mitomycin]	–	101	82	7	35	97	35	190
